Measurements from the NIST ThermoML archive (doi:10.1016/j.fluid.2017.09.014).

Assay: xn = mol fraction of the nth substance listed
Settings: Vibrating tube method, x2 = 0.9503

O=S=O [sulfur dioxide] + O=C=O
Settings | mass density [kg/m3]
272.65 K, 226 kPa, Gas | 4.8
272.65 K, 407 kPa, Gas | 8.5
272.65 K, 503 kPa, Gas | 10.6
272.65 K, 752 kPa, Gas | 16.2
272.65 K, 1013 kPa, Gas | 22.1
272.65 K, 1252 kPa, Gas | 27.9
272.65 K, 1506 kPa, Gas | 34.4
272.65 K, 1752 kPa, Gas | 40.9
272.65 K, 1998 kPa, Gas | 47.9
273.54 K, 25506 kPa, Liquid | 1065.1
273.54 K, 26999 kPa, Liquid | 1069.9
273.54 K, 29024 kPa, Liquid | 1076.3
273.54 K, 29514 kPa, Liquid | 1077.7
273.54 K, 30524 kPa, Liquid | 1080.9
273.54 K, 31975 kPa, Liquid | 1085.1
273.54 K, 32491 kPa, Liquid | 1086.7
273.54 K, 33027 kPa, Liquid | 1088.3
273.54 K, 33521 kPa, Liquid | 1089.7
273.54 K, 34032 kPa, Liquid | 1091.1
273.54 K, 34491 kPa, Liquid | 1092.3
273.54 K, 35043 kPa, Liquid | 1093.9
273.54 K, 35534 kPa, Liquid | 1095.1
273.54 K, 36045 kPa, Liquid | 1096.7
273.54 K, 36490 kPa, Liquid | 1097.6
273.54 K, 37047 kPa, Liquid | 1099
273.54 K, 37529 kPa, Liquid | 1100.5
273.54 K, 38033 kPa, Liquid | 1101.8
273.54 K, 38558 kPa, Liquid | 1103.1
273.54 K, 41723 kPa, Liquid | 1110.7
273.55 K, 20535 kPa, Liquid | 1047.9
273.55 K, 24032 kPa, Liquid | 1060.4
273.55 K, 24523 kPa, Liquid | 1061.9
273.55 K, 25039 kPa, Liquid | 1063.6
273.55 K, 26016 kPa, Liquid | 1066.9
273.55 K, 26484 kPa, Liquid | 1068.3
273.55 K, 27554 kPa, Liquid | 1071.7
273.55 K, 28041 kPa, Liquid | 1073
273.55 K, 28539 kPa, Liquid | 1074.9
273.55 K, 30026 kPa, Liquid | 1079.4
273.55 K, 30952 kPa, Liquid | 1082.2
273.55 K, 31482 kPa, Liquid | 1083.6
273.55 K, 38992 kPa, Liquid | 1104
273.55 K, 39553 kPa, Liquid | 1105.7
273.55 K, 40023 kPa, Liquid | 1106.6
273.55 K, 40508 kPa, Liquid | 1107.8
273.55 K, 41016 kPa, Liquid | 1109
273.56 K, 12509 kPa, Liquid | 1014.7
273.56 K, 13012 kPa, Liquid | 1017.2
273.56 K, 13506 kPa, Liquid | 1019.3
273.56 K, 17514 kPa, Liquid | 1036.2
273.56 K, 18049 kPa, Liquid | 1038.2
273.56 K, 18515 kPa, Liquid | 1040.1
273.56 K, 19000 kPa, Liquid | 1042.1
273.56 K, 19509 kPa, Liquid | 1044
273.56 K, 20028 kPa, Liquid | 1046
273.56 K, 21029 kPa, Liquid | 1049.7
273.56 K, 21519 kPa, Liquid | 1051.3
273.56 K, 21993 kPa, Liquid | 1053
273.56 K, 22501 kPa, Liquid | 1054.9
273.56 K, 23496 kPa, Liquid | 1058.4
273.56 K, 41601 kPa, Liquid | 1110.4
273.57 K, 9944 kPa, Liquid | 1001.9
273.57 K, 10516 kPa, Liquid | 1004.5
273.57 K, 11003 kPa, Liquid | 1007
273.57 K, 11502 kPa, Liquid | 1009.5
273.57 K, 12005 kPa, Liquid | 1012.2
273.57 K, 14518 kPa, Liquid | 1023.6
273.57 K, 14951 kPa, Liquid | 1025.4
273.57 K, 15999 kPa, Liquid | 1029.8
273.57 K, 16500 kPa, Liquid | 1031.9
273.57 K, 17024 kPa, Liquid | 1034.2
273.57 K, 23015 kPa, Liquid | 1056.6
273.58 K, 8503 kPa, Liquid | 993.8
273.58 K, 9008 kPa, Liquid | 996.7
273.58 K, 9518 kPa, Liquid | 999.7
273.58 K, 15602 kPa, Liquid | 1028.1
273.6 K, 4001 kPa, Liquid | 964.9
273.6 K, 5521 kPa, Liquid | 975.5
273.6 K, 6005 kPa, Liquid | 978.7
273.6 K, 6503 kPa, Liquid | 981.9
273.6 K, 7034 kPa, Liquid | 984.6
273.6 K, 7688 kPa, Liquid | 987.5
273.6 K, 8003 kPa, Liquid | 990.6
273.61 K, 4518 kPa, Liquid | 968.2
273.61 K, 5013 kPa, Liquid | 972.1
282.65 K, 800 kPa, Gas | 16.5
282.65 K, 1249 kPa, Gas | 26.3
282.66 K, 120 kPa, Gas | 2.5
282.66 K, 211 kPa, Gas | 4.3
282.66 K, 301 kPa, Gas | 6.1
282.66 K, 408 kPa, Gas | 8.5
282.66 K, 511 kPa, Gas | 10.6
282.66 K, 608 kPa, Gas | 12.3
282.66 K, 1009 kPa, Gas | 21.1
282.66 K, 1509 kPa, Gas | 32.8
282.66 K, 1705 kPa, Gas | 37.5
282.66 K, 1909 kPa, Gas | 42.7
282.66 K, 2010 kPa, Gas | 45.2
282.66 K, 2199 kPa, Gas | 50.5
282.66 K, 2508 kPa, Gas | 59.6
282.66 K, 2702 kPa, Gas | 65.5
282.66 K, 3008 kPa, Gas | 76
283.31 K, 27537 kPa, Liquid | 1038.9
283.31 K, 34500 kPa, Liquid | 1062.8
283.31 K, 35516 kPa, Liquid | 1065.8
283.31 K, 36037 kPa, Liquid | 1067.5
283.31 K, 36515 kPa, Liquid | 1068.6
283.31 K, 37578 kPa, Liquid | 1072.1
283.31 K, 38061 kPa, Liquid | 1073.3
283.32 K, 5005 kPa, Liquid | 910.4
